From paper PMC9278656 (Journal of medicinal chemistry, 2021)
Structures can show the parent of a compound that is named as a salt.

Legend:
p53^R175H = test: Immunofluorescence with conformation-specific antibodies PAB1620/PAB240; type: cell-based
Ionophore activity = conditions: larger number indicates weaker ionophore activity
Caco-2 permeability = type: in vitro ADME; conditions: human
Human hERG = Human hERG (Homo sapiens, UniProt Q12809); test: CEREP safety screen, hERG [3H]-dofetilide; type: binding; conditions: 10 μM
[1] = cited from earlier work
H1299 cells (p53 null) = test: Oxidative stress detection, CellROX Green, flow cytometry; type: cell-based; conditions: 0.75 μM compound, 24 h, relative to ZMC1
[2] = biological target: Human Norepinephrine Transporter (Homo sapiens, UniProt P23975); test: CEREP safety screen, norepinephrine transporter; type: binding; conditions: 10 μM
TOV-112D (p53^R175H) = test: Cell growth inhibition assay; type: cell-based; conditions: Homo sapiens, TOV112D, 72 h, read-out: EC50 TOV-112D
[3] = system: p53 wild type and p53 null cell lines; test: Cell kill in p53 wild type and p53 null cell lines; type: cell-based; conditions: allele selectivity, Suppl. Figure S1

Human hERG, sequence (Q12809 whole entry): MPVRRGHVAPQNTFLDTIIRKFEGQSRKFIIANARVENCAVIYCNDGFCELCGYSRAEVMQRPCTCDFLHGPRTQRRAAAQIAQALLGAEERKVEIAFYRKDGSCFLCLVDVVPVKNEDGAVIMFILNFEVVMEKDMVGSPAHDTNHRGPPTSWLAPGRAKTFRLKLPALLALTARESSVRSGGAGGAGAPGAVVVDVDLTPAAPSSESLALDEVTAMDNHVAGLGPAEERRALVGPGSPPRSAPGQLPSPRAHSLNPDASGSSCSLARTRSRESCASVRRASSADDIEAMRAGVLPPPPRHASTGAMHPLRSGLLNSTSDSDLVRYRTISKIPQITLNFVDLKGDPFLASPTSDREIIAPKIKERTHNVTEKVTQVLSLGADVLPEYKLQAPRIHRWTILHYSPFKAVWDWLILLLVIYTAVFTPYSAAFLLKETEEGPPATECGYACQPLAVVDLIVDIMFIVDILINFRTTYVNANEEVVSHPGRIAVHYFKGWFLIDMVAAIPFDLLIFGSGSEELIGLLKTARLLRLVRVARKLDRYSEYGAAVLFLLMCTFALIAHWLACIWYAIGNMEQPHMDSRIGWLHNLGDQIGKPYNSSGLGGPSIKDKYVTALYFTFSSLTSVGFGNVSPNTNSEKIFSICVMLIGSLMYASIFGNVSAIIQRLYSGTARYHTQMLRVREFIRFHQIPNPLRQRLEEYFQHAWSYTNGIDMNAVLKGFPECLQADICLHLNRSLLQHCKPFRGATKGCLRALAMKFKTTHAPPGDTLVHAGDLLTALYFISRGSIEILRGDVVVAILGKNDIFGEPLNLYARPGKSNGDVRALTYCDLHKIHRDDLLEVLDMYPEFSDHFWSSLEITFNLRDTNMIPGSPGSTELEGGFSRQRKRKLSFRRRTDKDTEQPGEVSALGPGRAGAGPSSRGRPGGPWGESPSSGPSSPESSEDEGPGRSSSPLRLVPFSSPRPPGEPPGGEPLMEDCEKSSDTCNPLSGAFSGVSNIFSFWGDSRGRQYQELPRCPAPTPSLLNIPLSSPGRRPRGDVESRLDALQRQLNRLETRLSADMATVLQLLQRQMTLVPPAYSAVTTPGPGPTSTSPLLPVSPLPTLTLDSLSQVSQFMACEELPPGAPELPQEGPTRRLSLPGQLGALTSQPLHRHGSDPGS
Human Norepinephrine Transporter, sequence (P23975 whole entry): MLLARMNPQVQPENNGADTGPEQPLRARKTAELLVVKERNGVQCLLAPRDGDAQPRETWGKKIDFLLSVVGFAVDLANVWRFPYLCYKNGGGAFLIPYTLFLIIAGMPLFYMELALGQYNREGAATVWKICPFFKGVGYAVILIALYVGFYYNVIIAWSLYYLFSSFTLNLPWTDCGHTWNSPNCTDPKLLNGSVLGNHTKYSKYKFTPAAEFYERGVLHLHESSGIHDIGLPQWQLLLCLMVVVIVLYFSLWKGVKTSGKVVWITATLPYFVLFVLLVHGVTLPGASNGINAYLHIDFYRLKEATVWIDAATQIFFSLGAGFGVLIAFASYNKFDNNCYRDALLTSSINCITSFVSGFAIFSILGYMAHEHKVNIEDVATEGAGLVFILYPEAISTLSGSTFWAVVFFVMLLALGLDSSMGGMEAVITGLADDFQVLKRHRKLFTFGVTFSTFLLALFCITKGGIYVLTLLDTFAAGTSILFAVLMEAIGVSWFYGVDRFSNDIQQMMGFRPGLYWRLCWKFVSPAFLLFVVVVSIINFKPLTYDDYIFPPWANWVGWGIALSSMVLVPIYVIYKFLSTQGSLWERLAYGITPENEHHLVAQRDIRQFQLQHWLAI

Structure (SMILES)	Refolding p53^R175H → wild type (p53^R175H)	Ionophore Ji drug/Ji DMSO (Ionophore activity)	further results
C/C(=N\Nc1ccc2ccccc2n1)c1ccccn1 [C22, (E)-2-(2-(1-(Pyridin-2-yl)ethylidene)hydrazineyl)quinoline]	YES	11.6 -log[mol/m^2s]	
C/C(=N\NC(=S)NC1CCN(c2ccccn2)CC1)c1ccccn1 [A4, (E)-2-(1-(Pyridin-2-yl)ethylidene)-N-(1-(pyridin-2-yl)piperidin-4-yl)hydrazine-1-carbothioamide]		14.5 -log[mol/m^2s]	
COCCOc1ccc2nc(N/N=C(\C)c3ccccn3)sc2c1 [C23, (E)-6-(2-Methoxyethoxy)-2-(2-(1-(pyridin-2-yl)ethylidene)hydrazineyl)benzo[d]thiazole AcOH]	YES	11.6 -log[mol/m^2s]	
C/C(=N\NC(=S)N(C)C)c1ccccn1 [A1, (E)-N,N-Dimethyl-2-(1-(pyridin-2-yl)ethylidene)hydrazine-1-carbothioamide]	YES	12.8 -log[mol/m^2s]	Papp at 90 min, 5 μM (Caco-2 permeability): 7.3 ± 0.1 ×10⁻⁶ cm/s
C/C(=N\Nc1nc2ccccc2o1)c1cc(OCCN(C)C)ccn1 [C35, (E)-2-((2-(1-(2-(Benzo[d]oxazol-2-yl)hydrazineylidene)ethyl)pyridin-4-yl)oxy)-N,N-dimethylethan-1-amine HCl]	YES		
C/C(=N\Nc1nc2ccccc2n1C)c1ccccn1 [C9, (E)-1-Methyl-2-(2-(1-(pyridin-2-yl)ethylidene)hydrazinyl)-1H-benzo[d]imidazole]	YES	11.6 -log[mol/m^2s]	hERG inhibition, in words (Human hERG): strong hERG inhibition; Aqueous solubility [1]: low aqueous solubility
C/C(=N\Nc1nccn1C)c1ccccn1 [C78, 2-(1-(2-(1-Methyl-1H-imidazol-2-yl)hydrazono)ethyl)pyridine HCl]	YES	11.8 -log[mol/m^2s]	
C/C(=N\Nc1nc2ccccc2n1CCN1CCOCC1)c1ccccn1 [C42, (E)-4-(2-(2-(2-(1-(Pyridin-2-yl)ethylidene)hydrazineyl)-1H-benzo[d]imidazol-1-yl)ethyl)morpholine HCl]	YES	11.6 -log[mol/m^2s]	ROS (ROS/ZMC1 ROS) (H1299 cells (p53 null)): 1.0; hERG inhibition, in words (Human hERG): strong hERG inhibition
C/C(=N\Nc1nc2ccccc2n1C)c1ncccn1 [C89, (E)-1-Methyl-2-(2-(1-(pyrimidin-2-yl)ethylidene)hydrazineyl)-1H-benzo[d]imidazole HCl]		12.0 -log[mol/m^2s]	hERG inhibition, in words (Human hERG): strong hERG inhibition
CS/C(=N\N=C(/C)c1ccccn1)N1CCC1 [A5, Methyl (Z)-N-((E)-1-(Pyridin-2-yl)ethylidene)azetidine-1-carbohydrazonothioate]		12.4 -log[mol/m^2s]	
C/C(=N\NC(=S)N1CCC1)c1cc(N(C)C)ccn1 [A14, (E)-N′-(1-(4-(Dimethylamino)pyridin-2-yl)ethylidene)azetidine-1-carbothiohydrazide]		12.5 -log[mol/m^2s]	
C/C(=N\Nc1nc2ccccc2n1CCN(C)C)c1ccccn1 [C27, (E)-N,N-Dimethyl-2-(2-(2-(1-(pyridin-2-yl)ethylidene)hydrazineyl)-1H-benzo[d]imidazol-1-yl)ethan-1-amine HCl]	YES	11.6 -log[mol/m^2s]	
C/C(=N\Nc1nc2ccccc2s1)c1ncccn1 [C77, (E)-2-(2-(1-(Pyrimidin-2-yl)ethylidene)hydrazineyl)benzo[d]thiazole AcOH]		11.8 -log[mol/m^2s]	Activity against the norepinephrine transporter, in words [2]: showed activity
C/C(=N\Nc1nc2ccccc2s1)c1cc(N(C)C)ccn1 [C21, (E)-2-(1-(2-(Benzo[d]thiazol-2-yl)hydrazineylidene)ethyl)-N,N-dimethylpyridin-4-amine]	YES	11.6 -log[mol/m^2s]	
C/C(=N\NC(=S)N1CCC1)c1ncccc1C [A12, (E)-N′-(1-(3-Methylpyridin-2-yl)ethylidene)azetidine-1-carbothiohydrazide]		11.6 -log[mol/m^2s]	EC50 (TOV-112D (p53^R175H)): 11 nM
C/C(=N\NC(=S)N1CCC1)c1ccccc1 [A9, (E)-N′-(1-Phenylethylidene)azetidine-1-carbothiohydrazide]		11.6 -log[mol/m^2s]	
C/C(=N\NC(=S)N1CCC1)c1cccc(C)n1 [A11, (E)-N′-(1-(6-Methylpyridin-2-yl)ethylidene)azetidine-1-carbothiohydrazide]	YES	12.6 -log[mol/m^2s]	
CC(C)(C)/C(=N\NC(=S)N1CCC1)c1ccccn1 [A13, (E)-N′-(2,2-Dimethyl-1-(pyridin-2-yl)propylidene)azetidine-1-carbothiohydrazide]		14.4 -log[mol/m^2s]	
C/C(=N\Nc1nc2ccccc2s1)c1cc(OCCN(C)C)ccn1 [C28, (E)-2-((2-(1-(2-(Benzo[d]thiazol-2-yl)hydrazineylidene)ethyl)pyridin-4-yl)oxy)-N,N-dimethylethan-1-amine HCl]	YES	11.6 -log[mol/m^2s]	hERG inhibition, in words (Human hERG): strong hERG inhibition; Activity against the norepinephrine transporter, in words [2]: showed activity
C/C(=N\Nc1nc2ccccc2o1)c1ccccn1 [C2, (E)-2-(2-(1-(Pyridin-2-yl)ethylidene)hydrazinyl)benzo[d]oxazole]	induced a wild-type conformational change and YES	11.8 -log[mol/m^2s]	Cell kill in p53 wild type and p53 null cell lines [3]: almost no cell kill; Papp at 90 min, 5 μM (Caco-2 permeability): 10.6 ± 0.5 ×10⁻⁶ cm/s; Aqueous solubility [1]: low aqueous solubility
C/C(=N\NC(=O)N1CCC1)c1ccccn1 [A6, (E)-N′-(1-(Pyridin-2-yl)ethylidene)azetidine-1-carbohydrazide]		12.9 -log[mol/m^2s]	
C/C(=N\Nc1nc2ccccc2s1)c1cc(OCCO)ccn1 [C61, (E)-2-((2-(1-(2-(Benzo[d]thiazol-2-yl)hydrazineylidene)ethyl)pyridin-4-yl)oxy)ethan-1-ol]		11.6 -log[mol/m^2s]	
COC/C(=N\Nc1nc2ccccc2s1)c1ccccn1 [C65, (Z)-2-(2-(2-Methoxy-1-(pyridin-2-yl)ethylidene)hydrazineyl)benzo[d]thiazole]	YES	11.6 -log[mol/m^2s]	
C/C(=N\NC(=S)N1CCC1)c1cnccn1 [A10, (E)-N′-(1-(Pyrazin-2-yl)ethylidene)azetidine-1-carbothiohydrazide]	YES	11.8 -log[mol/m^2s]	EC50 (TOV-112D (p53^R175H)): 22 nM
C/C(=N\Nc1nc2ccccc2s1)c1cc(OCCN2CCN(C)CC2)ccn1 [C64, (E)-2-(2-(1-(4-(2-(4-Methylpiperazin-1-yl)ethoxy)pyridin-2-yl)ethylidene)hydrazineyl)benzo[d]thiazole HCl]		11.6 -log[mol/m^2s]	
